Assay results as given in the supplement of paper PMC10307832.

Columns and labels:
Assay in all cases: relative viability (nuclei count vs DMSO), 5 days (fraction); higher = more cells survive
Neratinib + Bortezomib = compound: CCOc1cc2ncc(C#N)c(Nc3ccc(OCc4ccccn4)c(Cl)c3)c2cc1NC(=O)/C=C/CN(C)C [Neratinib] + CC(C)C[C@H](NC(=O)[C@H](Cc1ccccc1)NC(=O)c1cnccn1)B(O)O [Bortezomib] (partner 0.002 µM)
Summary of the method: (§1)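 Each reported value is a median over duplicate plates. It expresses relative viability: treated-well nuclei count divided by vehicle-well nuclei count. Lung cancer cell lines in 1536-well plates were dosed by pin tool a day after seeding, alone with one drug or with a fixed anchor-drug dose plus five library-drug doses (not always all listed) in √10 steps, and nuclei were counted after 5 days.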

Neratinib + Pemetrexed = compound: CCOc1cc2ncc(C#N)c(Nc3ccc(OCc4ccccn4)c(Cl)c3)c2cc1NC(=O)/C=C/CN(C)C [Neratinib] + Nc1nc2[nH]cc(CCc3ccc(C(=O)N[C@@H](CCC(=O)O)C(=O)O)cc3)c2c(=O)[nH]1 [Pemetrexed] (partner 0.2 µM)
Summary of the method: as §1

Neratinib + Olaparib = compound: CCOc1cc2ncc(C#N)c(Nc3ccc(OCc4ccccn4)c(Cl)c3)c2cc1NC(=O)/C=C/CN(C)C [Neratinib] + O=C(c1cc(Cc2n[nH]c(=O)c3ccccc23)ccc1F)N1CCN(C(=O)C2CC2)CC1 [Olaparib] (partner 8 µM)
Summary of the method: as §1

Neratinib + Alpelisib = compound: CCOc1cc2ncc(C#N)c(Nc3ccc(OCc4ccccn4)c(Cl)c3)c2cc1NC(=O)/C=C/CN(C)C [Neratinib] + Cc1nc(NC(=O)N2CCC[C@H]2C(N)=O)sc1-c1ccnc(C(C)(C)C(F)(F)F)c1 [Alpelisib] (partner 2 µM)
Summary of the method: as §1

| Cell Line | relative viability (Neratinib + Bortezomib; first compound 0.01 µM) | relative viability (Neratinib + Bortezomib; first compound 0.03162 µM) | relative viability (Neratinib + Bortezomib; first compound 0.3162 µM) | relative viability (Neratinib + Bortezomib; first compound 1 µM) | relative viability (Neratinib + Pemetrexed; first compound 0.01 µM) | relative viability (Neratinib + Pemetrexed; first compound 0.03162 µM) | relative viability (Neratinib + Pemetrexed; first compound 0.1 µM) | relative viability (Neratinib + Pemetrexed; first compound 0.3162 µM) | relative viability (Neratinib + Pemetrexed; first compound 1 µM) | relative viability (Neratinib + Olaparib; first compound 0.01 µM) | relative viability (Neratinib + Olaparib; first compound 0.03162 µM) | relative viability (Neratinib + Olaparib; first compound 0.1 µM) | relative viability (Neratinib + Olaparib; first compound 0.3162 µM) | relative viability (Neratinib + Olaparib; first compound 1 µM) | relative viability (Neratinib + Alpelisib; first compound 0.01 µM) | relative viability (Neratinib + Alpelisib; first compound 0.03162 µM) | relative viability (Neratinib + Alpelisib; first compound 0.3162 µM) | relative viability (Neratinib + Bortezomib; first compound 0.1 µM) | relative viability (Neratinib + Alpelisib; first compound 0.1 µM) | relative viability (Neratinib + Alpelisib; first compound 1 µM) |
| --- | --- | --- | --- | --- | --- | --- | --- | --- | --- | --- | --- | --- | --- | --- | --- | --- | --- | --- | --- | --- |
| NCI-H2087 | 0.775 | 0.867 | 0.782 | 0.857 | 0.634 | 0.74 | 0.655 | 0.694 | 0.548 | 0.622 | 0.496 | 0.643 | 0.424 | 0.255 | 1.15 | 1.11 | 1.05 | – | – | – |
| NCI-H2126 | 1.2 | 1.13 | 1.07 | 0.821 | 0.659 | 0.638 | 0.623 | 0.616 | 0.404 | 0.958 | 0.891 | 0.815 | 0.871 | 0.492 | 0.829 | 0.723 | 0.679 | 1.05 | 0.724 | 0.382 |
| NCI-H2228 | 1.16 | 1.03 | 0.765 | 0.295 | 0.382 | 0.362 | 0.306 | 0.271 | 0.147 | 0.943 | 0.576 | 0.589 | 0.425 | 0.199 | 0.702 | 0.703 | 0.497 | 1.01 | 0.599 | 0.243 |
| NCI-H2347 | 1.01 | 1.12 | 0.721 | 1.11 | 0.423 | 0.479 | 0.396 | 0.495 | 0.449 | – | 0.59 | 0.545 | 0.564 | 0.455 | 1.1 | 1.11 | 0.935 | 0.808 | 1.02 | 0.9 |
| NCI-H2405 | 1.05 | 1.09 | 0.998 | 0.954 | 1.19 | 1.16 | 1.02 | 1.04 | – | 0.892 | 0.93 | 0.85 | 0.908 | 0.619 | 0.815 | 0.808 | 0.633 | 0.708 | 0.811 | 0.287 |
| NCI-H3122 | 1.05 | 1.1 | 1.06 | 0.775 | 0.197 | 0.214 | 0.179 | 0.551 | 0.187 | 0.609 | 0.699 | 0.571 | 0.617 | 0.587 | 0.951 | 0.746 | 0.829 | 0.98 | 0.586 | 0.299 |
| PC-3 [JPC-3] | 0.834 | 0.844 | 0.802 | 0.365 | 1.44 | 1.32 | 1.07 | 0.564 | 0.43 | – | 1.29 | 0.964 | 0.81 | 0.424 | 1.07 | 1.07 | 0.918 | 0.82 | 1.02 | 0.316 |
| PC-14 | 0.88 | 0.86 | 0.918 | 0.158 | 0.128 | 0.118 | 0.14 | 0.141 | 0.0777 | 0.188 | 0.344 | 0.37 | 0.233 | 0.102 | 1.04 | 0.978 | 0.732 | 0.741 | 0.83 | 0.208 |
| RERF-LC-KJ | 1.19 | 1.07 | 0.878 | 0.596 | 0.484 | 0.483 | 0.505 | 0.477 | 0.405 | 0.925 | 0.911 | 0.828 | 0.848 | 0.468 | 0.842 | 0.841 | 0.577 | 0.87 | 0.709 | 0.394 |
| SK-LU-1 | 1.3 | 1.5 | 1.14 | 0.504 | 1.01 | 0.999 | 0.932 | 0.917 | 0.49 | 0.486 | 0.549 | 0.413 | 0.432 | 0.314 | 1.18 | 1.16 | 0.587 | 1.34 | 0.915 | 0.447 |
| SW 1573 | 1.07 | 1.28 | 1.08 | 0.843 | – | 0.878 | 0.651 | 0.799 | 0.475 | 0.634 | 0.444 | 0.374 | 0.391 | 0.287 | 0.94 | – | 0.577 | 0.998 | 0.591 | 0.515 |
| UMC-11 | 0.623 | 0.964 | 0.615 | 0.729 | 0.786 | 0.785 | 0.525 | 0.683 | 0.51 | 0.362 | 0.388 | 0.33 | 0.361 | 0.299 | 0.721 | 0.988 | 0.963 | 0.823 | 0.96 | 0.802 |
